Reference: ChEMBL document CHEMBL4229418, “Design, synthesis and pharmacology of aortic-selective acyl-CoA: Cholesterol O-acyltransferase (ACAT/SOAT) inhibitors” (Bioorg Med Chem, 2018)
In brackets after ≈: the same amount, converted by molar mass.

Columns and labels:
[1] = Tmax in non-fasted Beagle dog at 30 mg/kg, po by LC-MS/MS analysis; assay type: ADME, organism-based, Canis lupus familiaris; conditions: in vivo
[2] = Solubility of the compound in pH 1.2 solution; assay type: physicochemical; conditions: buffer
[3] = Tmax in fasted Beagle dog at 30 mg/kg, po by LC-MS/MS analysis; assay type: ADME, organism-based, Canis lupus familiaris; conditions: in vivo
[4] = Cmax in non-fasted Beagle dog at 30 mg/kg, po by LC-MS/MS analysis; assay type: ADME, organism-based, Canis lupus familiaris; parameters: dose 30 mg/kg, route oral; conditions: in vivo
[5] = Cmax in fasted Beagle dog at 30 mg/kg, po by LC-MS/MS analysis; assay type: ADME, organism-based, Canis lupus familiaris; parameters: dose 30 mg/kg, route oral; conditions: in vivo
[6] = AUC (0 to 8 hrs) in fasted Beagle dog at 30 mg/kg, po by LC-MS/MS analysis; assay type: ADME, organism-based, Canis lupus familiaris; parameters: dose 30 mg/kg, time < 8 hr, route oral; conditions: in vivo
Hamster [7] = experiment: Antiatherosclerotic activity in Bio F1B hamster model of diet-induced atherosclerosis assessed as reduction in lipid accumulation areas in aortic arch at 1 mg/kg/day added to chow pellets by oil red O staining based assay relative to control; assay type: functional; conditions: Cricetinae
Hamster [8] = experiment: Antiatherosclerotic activity in Bio F1B hamster model of diet-induced atherosclerosis assessed as reduction in lipid accumulation areas in aortic arch at 10 mg/kg/day added to chow pellets by oil red O staining based assay relative to control; assay type: functional; conditions: Cricetinae
[9] = Toxicity in rat measured over 2 weeks; assay type: organism-based; conditions: in vivo
Canis familiaris = experiment: Toxicity in dog assessed as induction of necrosis in adrenal reticular zona cells at 100 mg/kg measured over 2 weeks; assay type: organism-based, Canis lupus familiaris; conditions: in vivo, 336 h
Hamster [10] = experiment: Toxicity in Bio F1B hamster model of diet-induced atherosclerosis assessed as plasma total cholesterol level at 1 mg/kg/day added to chow pellets (reference value: 2160.1 mg/dl); assay type: organism-based; conditions: cricetinae, in vivo
Hamster [11] = experiment: Effect on lipid composition in Bio F1B hamster model of diet-induced atherosclerosis assessed as liver total cholesterol level at 3 mg/kg/day added to chow pellets (reference value: 31.99 mg/dl); assay type: functional, Cricetinae
Hamster [12] = experiment: Effect on lipid composition in Bio F1B hamster model of diet-induced atherosclerosis assessed as liver total cholesterol level at 10 mg/kg/day added to chow pellets (reference value: 31.99 mg/dl); assay type: functional, Cricetinae
Hamster [13] = experiment: Effect on lipid composition in Bio F1B hamster model of diet-induced atherosclerosis assessed as liver total cholesterol level at 30 mg/kg/day added to chow pellets (reference value: 31.99 mg/dl); assay type: functional, Cricetinae
Hamster [14] = experiment: Effect on lipid composition in Bio F1B hamster model of diet-induced atherosclerosis assessed as intestine total cholesterol level at 1 mg/kg/day added to chow pellets (reference value: 4.51 mg/dl); assay type: functional, Cricetinae
Hamster [15] = experiment: Effect on lipid composition in Bio F1B hamster model of diet-induced atherosclerosis assessed as intestine total cholesterol level at 3 mg/kg/day added to chow pellets (reference value: 4.51 mg/dl); assay type: functional, Cricetinae
Hamster [16] = experiment: Effect on lipid composition in Bio F1B hamster model of diet-induced atherosclerosis assessed as intestine total cholesterol level at 10 mg/kg/day added to chow pellets (reference value: 4.51 mg/dl); assay type: functional, Cricetinae
Hamster [17] = experiment: Effect on lipid composition in Bio F1B hamster model of diet-induced atherosclerosis assessed as intestine total cholesterol level at 30 mg/kg/day added to chow pellets (reference value: 4.51 mg/dl); assay type: functional, Cricetinae
Hamster [18] = experiment: Effect on lipid composition in Bio F1B hamster model of diet-induced atherosclerosis assessed as adrenal total cholesterol level at 1 mg/kg/day added to chow pellets (reference value: 10.54 mg/dl); assay type: functional, Cricetinae
Hamster [19] = experiment: Effect on lipid composition in Bio F1B hamster model of diet-induced atherosclerosis assessed as adrenal total cholesterol level at 3 mg/kg/day added to chow pellets (reference value: 10.54 mg/dl); assay type: functional, Cricetinae
Hamster [20] = experiment: Effect on lipid composition in Bio F1B hamster model of diet-induced atherosclerosis assessed as adrenal total cholesterol level at 10 mg/kg/day added to chow pellets (reference value: 10.54 mg/dl); assay type: functional, Cricetinae
Hamster [21] = experiment: Effect on lipid composition in Bio F1B hamster model of diet-induced atherosclerosis assessed as adrenal total cholesterol level at 30 mg/kg/day added to chow pellets (reference value: 10.54 mg/dl); assay type: functional, Cricetinae
Hamster [22] = experiment: Antiatherosclerotic activity in Bio F1B hamster model of diet-induced atherosclerosis assessed as plasma free cholesterol level at 10 mg/kg/day added to chow pellets (reference value: 780.8 mg/dl); assay type: functional, Cricetinae
Hamster [23] = experiment: Antiatherosclerotic activity in Bio F1B hamster model of diet-induced atherosclerosis assessed as plasma free cholesterol level at 30 mg/kg/day added to chow pellets (reference value: 780.8 mg/dl); assay type: functional, Cricetinae
Hamster [24] = experiment: Antiatherosclerotic activity in Bio F1B hamster model of diet-induced atherosclerosis assessed as liver free cholesterol level at 10 mg/kg/day added to chow pellets (reference value: 7.94 mg/dl); assay type: functional, Cricetinae
Hamster [25] = experiment: Antiatherosclerotic activity in Bio F1B hamster model of diet-induced atherosclerosis assessed as intestinal free cholesterol level at 10 mg/kg/day added to chow pellets (reference value: 3.41 mg/dl); assay type: functional, Cricetinae
Hamster [26] = experiment: Antiatherosclerotic activity in Bio F1B hamster model of diet-induced atherosclerosis assessed as intestinal free cholesterol level at 30 mg/kg/day added to chow pellets (reference value: 3.41 mg/dl); assay type: functional, Cricetinae
Hamster [27] = experiment: Toxicity in Bio F1B hamster model of diet-induced atherosclerosis assessed as adrenal free cholesterol level at 10 mg/kg/day added to chow pellets (reference value: 4.65 mg/dl); assay type: organism-based; conditions: cricetinae, in vivo
Hamster [28] = experiment: Toxicity in Bio F1B hamster model of diet-induced atherosclerosis assessed as adrenal free cholesterol level at 30 mg/kg/day added to chow pellets (reference value: 4.65 mg/dl); assay type: organism-based; conditions: cricetinae, in vivo
Hamster [29] = experiment: Antiatherosclerotic activity in Bio F1B hamster model of diet-induced atherosclerosis assessed as plasma cholesterol ester level at 3 mg/kg/day added to chow pellets (reference value: 1379.3 mg/dl); assay type: functional, Cricetinae
Hamster [30] = experiment: Antiatherosclerotic activity in Bio F1B hamster model of diet-induced atherosclerosis assessed as liver cholesterol ester level at 3 mg/kg/day added to chow pellets (reference value: 24.04 mg/dl); assay type: functional, Cricetinae
Hamster [31] = experiment: Antiatherosclerotic activity in Bio F1B hamster model of diet-induced atherosclerosis assessed as liver cholesterol ester level at 30 mg/kg/day added to chow pellets (reference value: 24.04 mg/dl); assay type: functional, Cricetinae
Hamster [32] = experiment: Antiatherosclerotic activity in Bio F1B hamster model of diet-induced atherosclerosis assessed as intestinal cholesterol ester level at 10 mg/kg/day added to chow pellets (reference value: 1.09 mg/dl); assay type: functional, Cricetinae
Hamster [33] = experiment: Antiatherosclerotic activity in Bio F1B hamster model of diet-induced atherosclerosis assessed as intestinal cholesterol ester level at 30 mg/kg/day added to chow pellets (reference value: 1.09 mg/dl); assay type: functional, Cricetinae
Hamster [34] = experiment: Antiatherosclerotic activity in Bio F1B hamster model of diet-induced atherosclerosis assessed as adrenal cholesterol ester level at 1 mg/kg/day added to chow pellets (reference value: 5.88 mg/dl); assay type: functional, Cricetinae
Hamster [35] = experiment: Antiatherosclerotic activity in Bio F1B hamster model of diet-induced atherosclerosis assessed as adrenal cholesterol ester level at 30 mg/kg/day added to chow pellets (reference value: 5.88 mg/dl); assay type: functional, Cricetinae

## CC(C)c1cccc(C(C)C)c1NC(=O)CCCCCCCCSc1nc2ccccc2o1
[1]
  Tmax: 3 h
[2]
  solubility: 0.03 µg/mL (≈ 0.0643 µM)
[3]
  Tmax: 1 h
[4]
  Cmax: 582 ng/mL
[5]
  Cmax: 5 ng/mL
[6]
  AUC(0-t) at 8 h: 14 ng·h/mL
Hamster [7]
  inhibition in vivo at 1 mg/kg/day: 74%
Hamster [8]
  inhibition in vivo at 10 mg/kg/day: 42%
[9]
  NOAEL at 336 h: 30 mg/kg
Canis familiaris
  Activity: Toxic
Hamster [10]
  Activity: 2340.8 mg/dL
Hamster [11]
  Activity: 23.62 mg/dL
Hamster [12]
  Activity: 11.52 mg/dL
Hamster [13]
  Activity: 3.03 mg/dL
Hamster [14]
  Activity: 4.4 mg/dL
Hamster [15]
  Activity: 4.12 mg/dL
Hamster [16]
  Activity: 4.07 mg/dL
Hamster [17]
  Activity: 4.81 mg/dL
Hamster [18]
  Activity: 11.13 mg/dL
Hamster [19]
  Activity: 10.07 mg/dL
Hamster [20]
  Activity: 7 mg/dL
Hamster [21]
  Activity: 3.47 mg/dL
Hamster [22]
  Activity: 491.9 mg/dL
Hamster [23]
  Activity: 217.2 mg/dL
Hamster [24]
  Activity: 3.87 mg/dL
Hamster [25]
  Activity: 3.82 mg/dL
Hamster [26]
  Activity: 4.62 mg/dL
Hamster [27]
  Activity: 3.5 mg/dL
Hamster [28]
  Activity: 2.4 mg/dL
Hamster [29]
  Activity: 1439.6 mg/dL
Hamster [30]
  Activity: 17.67 mg/dL
Hamster [31]
  Activity: 0.69 mg/dL
Hamster [32]
  Activity: 0.31 mg/dL
Hamster [33]
  Activity: 0.24 mg/dL
Hamster [34]
  Activity: 6.72 mg/dL
Hamster [35]
  Activity: 1.08 mg/dL
